These results are taken from ChEMBL document CHEMBL3112436, “Discovery of a novel series of indoline carbamate and indolinylpyrimidine derivatives as potent GPR119 agonists” (Bioorg Med Chem, 2014).

Values after ≈ are worked out from the molar mass of the structure shown.

The nature of data set [1]: Aqueous solubility of the compound in buffer at pH 6.8 by HPLC analysis. The format is physicochemical.
The nature of data set [2]: 1-Octanol-water partition coefficient, log D of the compound at pH 7.4 by HPLC analysis. The class given is physicochemical.
Data set [3] concerns the target T1, Glucose-dependent insulinotropic receptor (Homo sapiens, UniProt Q8TDV5).
T1 sequence (Q8TDV5 whole entry): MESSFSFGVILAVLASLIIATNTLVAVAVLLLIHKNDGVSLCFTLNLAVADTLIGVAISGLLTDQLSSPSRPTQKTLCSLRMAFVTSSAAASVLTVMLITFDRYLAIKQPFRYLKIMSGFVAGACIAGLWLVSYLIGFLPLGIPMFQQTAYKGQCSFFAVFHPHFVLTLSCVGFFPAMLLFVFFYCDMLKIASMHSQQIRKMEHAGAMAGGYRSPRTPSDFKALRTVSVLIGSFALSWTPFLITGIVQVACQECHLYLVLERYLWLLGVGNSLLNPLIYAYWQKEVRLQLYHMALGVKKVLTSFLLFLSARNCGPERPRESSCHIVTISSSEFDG
The experiment in a line: Agonist activity at human GPR119 transfected in CHO cells assessed as cAMP accumulation after 2 hrs by luciferase reporter gene assay. The format is functional, cell-based.

Data set [4] concerns Rattus norvegicus. The experiment in a line: Antidiabetic activity in Wistar fatty rat type 2 diabetic model assessed as increase in insulin secretion at 10 mg/kg, po administered 1 hr prior to glucose challenge by oral glucose tolerance test. The format is functional, organism-based. Also on record: dose 10 mg/kg. To be noted: TDE = time-dependent effect.
For data set [5], the system named is Rattus norvegicus. The experiment in a line: Antidiabetic activity in Wistar fatty rat type 2 diabetic model assessed as reduction of plasma glucose level at 10 mg/kg, po administered 1 hr prior to glucose challenge by oral glucose tolerance test. The format is functional, organism-based. Also on record: dose 10 mg/kg. The conditions noted are these: TDE = time-dependent effect.

The test system of data set [6] is Rattus norvegicus. The experiment in a line: Antidiabetic activity in Wistar fatty rat type 2 diabetic model assessed as increase in insulin secretion at 30 mg/kg, po administered 1 hr prior to glucose challenge by oral glucose tolerance test. More on the design: dose 30 mg/kg. The conditions noted are these: TDE = time-dependent effect. The format is functional, organism-based.

In data set [7] the test system is Rattus norvegicus. The experiment in a line: Antidiabetic activity in Wistar fatty rat type 2 diabetic model assessed as reduction of plasma glucose level at 30 mg/kg, po administered 1 hr prior to glucose challenge by oral glucose tolerance test. The format is functional, organism-based. More on the design: dose 30 mg/kg. To be noted: TDE = time-dependent effect.

`CC(COC(=O)N1CCc2cc(S(C)(=O)=O)cc(F)c21)C1CCN(C(=O)OC(C)(C)C)CC1` (racemic) gave a solubility in data set [1] of 21 µg/mL (≈ 43.3 µM). In data set [2], this molecule yielded a logD of 3.3. Also, in data set [3], the EC50 is 0.0068 µM.

`CC(C)OC(=O)N1CCC(Oc2cc(N3CCc4cc(S(C)(=O)=O)ccc43)ncn2)CC1` returned a logD in data set [2] of 3.1. Further, in data set [3], the EC50 is 0.017 µM.

In data set [1], `CC(C)(C)OC(=O)N1CCC(CCOC(=O)N2CCc3cc(S(C)(=O)=O)cc(Cl)c32)CC1` displayed a solubility of 21 µg/mL (≈ 43.1 µM). Also, the logD in data set [2] was 3.2. For the same molecule, the EC50 in data set [3] was found to be 0.021 µM.

Take `CCc1cnc(N2CCC(Oc3cc(N4CCc5cc(S(C)(=O)=O)ccc54)ncn3)CC2)nc1`: in data set [2], the logD was found to be 3.8. Besides, the EC50 in data set [3] was 0.011 µM.

In turn, `CC(C)OC(=O)N1CCC(Oc2cccc(N3CCc4cc(S(C)(=O)=O)ccc43)c2)CC1` gave a logD in data set [2] of 3.5. Also, the EC50 in data set [3] came out at 0.49 µM.

As to `Cc1c(S(C)(=O)=O)ccc2c1CCN2C(=O)OCCC1CCN(C(=O)OC(C)(C)C)CC1`, the solubility in data set [1] was 0.17 µg/mL (≈ 0.364 µM). The molecule further came in with a logD in data set [2] of 3.4. In addition, the EC50 in data set [3] stood at 0.77 µM.

`CC(C)OC(=O)N1CCC(Oc2ncnc(N3CCc4cc(S(C)(=O)=O)ccc43)n2)CC1` yielded a logD in data set [2] of 2.6. Moreover, in data set [3], the EC50 was 0.52 µM.

In data set [2], `CC(C)OC(=O)N1CCC(Oc2ccnc(N3CCc4cc(S(C)(=O)=O)ccc43)c2)CC1` returned a logD of 3. Besides, the EC50 in data set [3] is 0.087 µM.

In data set [2], `CC(C)c1noc(N2CCC(Oc3cc(N4CCc5cc(S(C)(=O)=O)ccc54)ncn3)CC2)n1` had a logD of 3.1. In addition, the EC50 in data set [3] came out at 0.0077 µM. Moreover, the Activity result in the data set on Rattus norvegicus [4] and in the data set with Rattus norvegicus [5] was “tde” in each case.

In turn, `CC(C)(C)OC(=O)N1CCC(CCCCN2CCc3cc(S(C)(=O)=O)ccc32)CC1` returned a logD in data set [2] of 4.1. For the same molecule, in data set [3], the EC50 was 1.4 µM.

The molecule `CC(COC(=O)N1CCc2cc(S(C)(=O)=O)ccc21)C1CCN(C(=O)OC(C)(C)C)CC1` (racemic) returned a logD in data set [2] of 3.4. Moreover, the EC50 in data set [3] stood at 0.0084 µM.

Turning to `CC(C)(C)OC(=O)N1CCC(CCOC(=O)N2CCc3cc(S(C)(=O)=O)c(F)cc32)CC1`, in data set [1], the concentration in solution (solubility) was 0.67 µg/mL (≈ 1.42 µM). This molecule also yielded a logD in data set [2] of 3.3. In addition, the EC50 in data set [3] was found to be 0.16 µM.

Take `CCc1cnc(N2CCC(C(C)COC(=O)N3CCc4cc(S(C)(=O)=O)cc(F)c43)CC2)nc1` (racemic): the solubility in data set [1] is 3.8 µg/mL (≈ 7.75 µM). Also, the Activity entry in the data set with Rattus norvegicus [6] and in the data set on Rattus norvegicus [7] was “tde” each time. The same molecule gave a logD in data set [2] of 3.6. Also, the EC50 in data set [3] came out at 0.0039 µM.

As for `Cc1cc(S(C)(=O)=O)cc2c1N(C(=O)OCCC1CCN(C(=O)OC(C)(C)C)CC1)CC2`, in data set [1], the concentration in solution (solubility) came to 44 µg/mL (≈ 94.3 µM). Also, the logD in data set [2] was 3.2. Moreover, the EC50 in data set [3] was 0.044 µM.

For the molecule `CC(C)(C)OC(=O)N1CCC(CCOC(=O)N2CCc3cc(S(C)(=O)=O)cc(F)c32)CC1`, in data set [1], the concentration in solution (solubility) came to 42 µg/mL (≈ 89.3 µM). This molecule came in with a logD in data set [2] of 3. Moreover, the EC50 in data set [3] came to 0.025 µM.

In data set [1], `CC(C)(C)OC(=O)N1CCC(CCOC(=O)N2CCc3c2ccc(S(C)(=O)=O)c3F)CC1` gave a solubility of 0.81 µg/mL (≈ 1.72 µM). The logD in data set [2] is 3.2. The EC50 in data set [3] is 0.025 µM.

`CC(C)(C)OC(=O)N1CCC(C(O)COC(=O)N2CCc3cc(S(C)(=O)=O)ccc32)CC1` (racemic) displayed a logD in data set [2] of 2.1. Besides, the EC50 in data set [3] is 2.4 µM.

In the case of `CC(C)(C)OC(=O)N1CCC(CCCC(=O)N2CCc3cc(S(C)(=O)=O)ccc32)CC1`, the logD in data set [2] amounted to 2.9. Moreover, the EC50 in data set [3] is 0.12 µM.

For `COc1cc(S(C)(=O)=O)cc2c1N(C(=O)OCCC1CCN(C(=O)OC(C)(C)C)CC1)CC2`, the solubility in data set [1] was found to be 64 µg/mL (≈ 133 µM). This molecule had a logD in data set [2] of 2.8. Besides, in data set [3], the EC50 is 1.7 µM.

Take `CC(CC1CCN(C(=O)OC(C)(C)C)CC1)OC(=O)N1CCc2cc(S(C)(=O)=O)ccc21` (racemic): the log distribution coefficient (logD) in data set [2] was 3.4. In addition, in data set [3], the EC50 came to 2.6 µM.

As to `CC(C)(C)OC(=O)N1CCC(n2ccc3c(N4CCc5cc(S(C)(=O)=O)ccc54)ncnc32)CC1`, the EC50 in data set [3] turned out to be 0.016 µM.

In data set [2], `CC(C)(C)OC(=O)N1CCC(CCOC(=O)N2CCc3cc(S(C)(=O)=O)ccc32)CC1` came in with a logD of 3.1. Besides, in data set [3], the EC50 was found to be 0.068 µM.

For the molecule `CC(C)(C)OC(=O)N1CCC(CCNC(=O)N2CCc3cc(S(C)(=O)=O)ccc32)CC1`, in data set [2], the logD was determined as 2.3. Moreover, the EC50 in data set [3] worked out at 2.5 µM.

The molecule `CC(C)(C)OC(=O)N1CCC(CCOC(=O)N2CCc3c2ccc(S(C)(=O)=O)c3Cl)CC1` had a solubility in data set [1] of 0.21 µg/mL (≈ 0.431 µM). This molecule also gave a logD in data set [2] of 3.6. The EC50 in data set [3] stood at 0.53 µM.

With `CC(C)OC(=O)N1CCC(Oc2ccnc(N3CCc4cc(S(C)(=O)=O)ccc43)n2)CC1`, in data set [2], the logD was 3.5. Moreover, the EC50 in data set [3] is 8.8 µM.

`COc1cc2c(cc1S(C)(=O)=O)CCN2C(=O)OCCC1CCN(C(=O)OC(C)(C)C)CC1` showed a solubility in data set [1] of 45 µg/mL (≈ 93.2 µM). Besides, the logD in data set [2] is 3.3. The EC50 in data set [3] turned out to be 4.8 µM.
